Assay results published in patent publication US10710993B2, “Benzofuran pyrazole amine kinase inhibitor” (Hangzhou REX Pharmaceutical Co., LTD., priority 2016, dated 2020).

What was measured:
[1] = biological target: T1, Wild-Type ALK (Homo sapiens, UniProt Q9UM73); test: Z'-LYTE (FRET) ALK kinase inhibitory activity; assay type: biochemical
T1 construct: purchased Life Technology
Experimental: (§1) The kinase activity assay was determined by using kinase assay panel (Life Technology) and the result was in table 1.

[2] = biological target: T2, TEL-ALK-F1174L-BaF3 (Homo sapiens, UniProt Q9UM73, F1174L, cells depend on it); test: Cell proliferation experiment (Cell-Titer GLO), TEL-ALK-F1174L-BaF3; assay type: cell-based; settings: 72 h, read-out: IC50 TEL-ALK F1174L-BaF3
T2 construct: fused on or other part: TEL (ETV6) N-terminal oligomerising part fused before the ALK intracellular/kinase part; P41212 (Transcription factor ETV6)
T2 sequence (Q9UM73 whole entry F1174L, the tested form may be a part): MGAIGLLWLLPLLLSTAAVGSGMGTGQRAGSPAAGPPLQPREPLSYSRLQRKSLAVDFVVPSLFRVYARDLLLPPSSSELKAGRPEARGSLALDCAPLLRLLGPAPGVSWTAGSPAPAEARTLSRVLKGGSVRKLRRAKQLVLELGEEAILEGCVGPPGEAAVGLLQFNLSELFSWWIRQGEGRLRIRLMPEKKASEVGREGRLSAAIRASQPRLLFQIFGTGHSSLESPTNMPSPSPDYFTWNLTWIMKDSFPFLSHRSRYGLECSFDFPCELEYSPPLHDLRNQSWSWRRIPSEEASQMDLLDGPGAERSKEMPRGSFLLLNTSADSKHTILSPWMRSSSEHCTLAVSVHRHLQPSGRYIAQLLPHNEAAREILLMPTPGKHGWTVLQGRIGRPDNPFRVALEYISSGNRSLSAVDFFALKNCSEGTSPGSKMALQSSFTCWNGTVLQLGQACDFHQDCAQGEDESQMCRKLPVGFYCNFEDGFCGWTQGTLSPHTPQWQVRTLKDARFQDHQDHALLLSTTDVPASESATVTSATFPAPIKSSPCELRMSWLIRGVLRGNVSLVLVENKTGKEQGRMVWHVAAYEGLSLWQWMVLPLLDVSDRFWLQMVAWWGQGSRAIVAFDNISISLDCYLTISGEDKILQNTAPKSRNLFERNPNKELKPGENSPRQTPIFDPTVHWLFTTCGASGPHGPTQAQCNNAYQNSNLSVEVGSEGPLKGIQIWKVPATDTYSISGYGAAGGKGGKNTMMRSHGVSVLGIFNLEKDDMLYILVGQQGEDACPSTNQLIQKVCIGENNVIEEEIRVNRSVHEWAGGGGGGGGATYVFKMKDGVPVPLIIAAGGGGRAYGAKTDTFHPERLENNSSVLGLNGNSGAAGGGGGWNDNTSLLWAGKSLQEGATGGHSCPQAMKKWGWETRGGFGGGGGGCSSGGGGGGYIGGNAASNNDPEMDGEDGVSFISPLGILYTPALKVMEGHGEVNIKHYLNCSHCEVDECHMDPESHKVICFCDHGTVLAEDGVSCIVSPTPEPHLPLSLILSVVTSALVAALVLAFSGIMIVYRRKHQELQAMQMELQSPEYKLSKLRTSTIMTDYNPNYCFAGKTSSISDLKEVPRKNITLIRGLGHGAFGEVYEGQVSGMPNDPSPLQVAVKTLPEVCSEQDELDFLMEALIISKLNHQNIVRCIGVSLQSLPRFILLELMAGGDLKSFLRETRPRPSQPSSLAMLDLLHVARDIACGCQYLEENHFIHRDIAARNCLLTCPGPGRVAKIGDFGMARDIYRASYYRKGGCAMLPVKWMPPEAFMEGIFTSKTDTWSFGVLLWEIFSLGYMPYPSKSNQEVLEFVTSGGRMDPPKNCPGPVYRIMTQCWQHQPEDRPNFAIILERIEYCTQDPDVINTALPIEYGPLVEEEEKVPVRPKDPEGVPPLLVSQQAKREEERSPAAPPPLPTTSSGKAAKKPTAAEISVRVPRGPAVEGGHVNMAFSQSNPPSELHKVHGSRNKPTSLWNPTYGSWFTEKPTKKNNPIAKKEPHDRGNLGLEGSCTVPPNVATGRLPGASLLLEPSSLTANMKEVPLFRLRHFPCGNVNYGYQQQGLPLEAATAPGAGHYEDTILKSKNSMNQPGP
Experimental: (§2) Compounds to be tested: Positive compound Ceritinib and the compounds obtained by the examples of the present invention.
(§3) Cell lines: Karpas-299 and NCI-H3122 which were purchased from the Nanjing kebai biotechnology Co. LTD; TEL-ALK-F1174L-BaF3, TEL-ALK-G1202R-BaF3, TEL-ALK-C1156Y-BaF3 and TEL-ALK-L1196M-BaF3 which were purchased from Hefei zhongkopruisheng biological medicine technology Co. LTD.
(§4) Method: Cells were seeded in 96-well plates for 24 h in growth media containing 10% fetalbovine serum (FBS) and cultured overnight at 37° C. The following day, serial dilutions of compounds or appropriate control were added to the designated wells, and cells were incubated at 37° C. for 72 h. A Cell Titer Glo assay (Promega) was then performed to determine the relative cell numbers. IC50 values were calculated by concentration-response curve fitting using a four-parameter analytical method with Graphpad 6.0. Drug inhibition rate (%)=100%−[OD(Compound)−OD(blank)]/[OD(vehicle)−OD(blank)]×100% Equation: […]

[3] = biological target: T3, TEL-ALK-C1156Y-BaF3 (Homo sapiens, UniProt Q9UM73, C1156Y, cells depend on it); test: Cell proliferation experiment (Cell-Titer GLO), TEL-ALK-C1156Y-BaF3; assay type: cell-based; settings: 72 h, read-out: IC50 TEL-ALK C1156Y-BaF3
T3 construct: fused on or other part: TEL (ETV6) N-terminal oligomerising part fused before the ALK intracellular/kinase part; P41212 (Transcription factor ETV6)
T3 sequence (Q9UM73 whole entry C1156Y, the tested form may be a part): as the sequence (Q9UM73 whole entry F1174L, the tested form may be a part) above, with C1156Y, L1174F counted along it
Experimental: as §2, §3, §4

[4] = tested on: Karpas-299; test: Cell proliferation experiment (Cell-Titer GLO), Karpas-299; assay type: cell-based; settings: Homo sapiens, 72 h
Experimental: as §2, §3, §4

[5] = tested on: NCI-H3122; test: Cell proliferation experiment (Cell-Titer GLO), NCI-H3122; assay type: cell-based; settings: Homo sapiens, 72 h
Experimental: as §2, §3, §4

[6] = biological target: T4, TEL-ALK-G1202R-BaF3 (Homo sapiens, UniProt Q9UM73, G1202R, cells depend on it); test: Cell proliferation experiment (Cell-Titer GLO), TEL-ALK-G1202R-BaF3; assay type: cell-based; settings: 72 h, read-out: IC50 TEL-ALK G1202R-BaF3
T4 construct: fused on or other part: TEL (ETV6) N-terminal oligomerising part fused before the ALK intracellular/kinase part; P41212 (Transcription factor ETV6)
T4 sequence (Q9UM73 whole entry G1202R, the tested form may be a part): as the sequence (Q9UM73 whole entry F1174L, the tested form may be a part) above, with L1174F, G1202R counted along it
Experimental: as §2, §3, §4

[7] = biological target: T5, ALK L1196M (Homo sapiens, UniProt Q9UM73, L1196M); test: LanthaScreen Eu Kinase Binding Assay (TR-FRET) on ALK mutant
T5 construct: purchased Life Technology
T5 sequence (Q9UM73 19-1620 L1196M): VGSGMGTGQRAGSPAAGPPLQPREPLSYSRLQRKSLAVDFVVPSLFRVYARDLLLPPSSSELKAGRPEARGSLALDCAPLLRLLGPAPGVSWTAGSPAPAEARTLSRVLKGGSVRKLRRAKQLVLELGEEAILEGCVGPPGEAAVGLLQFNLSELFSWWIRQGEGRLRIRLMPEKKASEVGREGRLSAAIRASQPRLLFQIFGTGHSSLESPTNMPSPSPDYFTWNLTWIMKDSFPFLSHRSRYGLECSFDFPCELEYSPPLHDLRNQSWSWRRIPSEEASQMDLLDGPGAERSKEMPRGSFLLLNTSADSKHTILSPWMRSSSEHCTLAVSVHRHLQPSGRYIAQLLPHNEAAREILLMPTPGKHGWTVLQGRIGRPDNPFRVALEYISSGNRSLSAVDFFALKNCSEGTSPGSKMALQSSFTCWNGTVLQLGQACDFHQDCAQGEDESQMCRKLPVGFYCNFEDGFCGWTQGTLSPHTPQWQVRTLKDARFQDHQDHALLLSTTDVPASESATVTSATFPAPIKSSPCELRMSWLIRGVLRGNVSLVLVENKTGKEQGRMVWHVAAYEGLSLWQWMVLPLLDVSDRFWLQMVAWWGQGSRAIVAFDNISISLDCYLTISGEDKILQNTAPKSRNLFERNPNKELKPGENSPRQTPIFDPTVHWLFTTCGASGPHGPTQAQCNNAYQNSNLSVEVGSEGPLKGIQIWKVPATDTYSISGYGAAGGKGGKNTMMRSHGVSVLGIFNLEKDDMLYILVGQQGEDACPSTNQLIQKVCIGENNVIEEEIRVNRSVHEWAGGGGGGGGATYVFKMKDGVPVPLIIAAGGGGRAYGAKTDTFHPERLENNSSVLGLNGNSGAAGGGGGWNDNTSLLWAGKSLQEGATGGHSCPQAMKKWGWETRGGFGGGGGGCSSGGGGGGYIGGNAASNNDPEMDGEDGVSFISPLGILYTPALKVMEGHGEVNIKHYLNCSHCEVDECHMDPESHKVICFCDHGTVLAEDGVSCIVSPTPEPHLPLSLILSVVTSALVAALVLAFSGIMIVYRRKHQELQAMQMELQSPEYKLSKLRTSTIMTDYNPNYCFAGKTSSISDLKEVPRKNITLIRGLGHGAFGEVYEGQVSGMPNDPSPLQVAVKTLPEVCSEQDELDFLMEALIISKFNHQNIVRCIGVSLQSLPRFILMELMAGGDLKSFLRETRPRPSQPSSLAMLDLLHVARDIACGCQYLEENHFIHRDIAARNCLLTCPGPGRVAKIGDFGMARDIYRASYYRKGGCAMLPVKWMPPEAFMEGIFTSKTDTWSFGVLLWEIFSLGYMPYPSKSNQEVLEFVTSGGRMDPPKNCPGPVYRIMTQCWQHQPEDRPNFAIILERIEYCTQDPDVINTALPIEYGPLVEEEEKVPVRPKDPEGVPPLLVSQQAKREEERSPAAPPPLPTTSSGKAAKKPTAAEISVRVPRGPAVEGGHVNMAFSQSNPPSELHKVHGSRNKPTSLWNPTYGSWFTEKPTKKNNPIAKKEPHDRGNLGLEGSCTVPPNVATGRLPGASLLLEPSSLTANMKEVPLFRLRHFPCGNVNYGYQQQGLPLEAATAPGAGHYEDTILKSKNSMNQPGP
From the text: Meanwhile, The LanthaScreen® Eu Kinase Binging Assay (TR-FRET) method was used for determining ALK Mutants (such as ALK L1196M) inhibitory activity IC50. LanthaScreen Eu kinase binding experiment detected Alexa Fluor conjugate or kinase “tracer” binding by adding Eu labeled antibodies or anti-label antibodies. The combination of tracer and antibody with kinase leads to a high level of FRET, whereas the use of kinase inhibitors in place of tracer may cause FRET loss.
as §1

[8] = biological target: T6, TEL-ALK-L1196M-BaF3 (Homo sapiens, UniProt Q9UM73, L1196M, cells depend on it); test: Cell proliferation experiment (Cell-Titer GLO), TEL-ALK-L1196M-BaF3; assay type: cell-based; settings: 72 h, read-out: IC50 TEL-ALK L1196M-BaF3
T6 construct: fused on or other part: TEL (ETV6) N-terminal oligomerising part fused before the ALK intracellular/kinase part; P41212 (Transcription factor ETV6)
T6 sequence (Q9UM73 whole entry L1196M, the tested form may be a part): as the sequence (Q9UM73 whole entry F1174L, the tested form may be a part) above, with L1174F, L1196M counted along it
Experimental: as §3
Method: Cells were seeded in 96-well plates for 24 h in growth media containing 10% fetalbovine serum (FBS) and cultured overnight at 37° C. The following day, serial dilutions of compounds or appropriate control were added to the designated wells, and cells were incubated at 37° C. for 72 h. A Cell Titer Glo assay (Promega) was then performed to determine the relative cell numbers. IC50 values were calculated by concentration-response curve fitting using a four-parameter analytical method with Graphpad 6.0.

[9] = tested on: zebrafish iridophore pigment cells; test: Phenotypic screening of zebrafish: effect on iridophore pigment cells; assay type: in vivo, Zebrafish (Danio rerio); settings: 15 μM
From the text: Zebrafish (Danio rerio) is emerging as a predictive vertebrate animal model for in vivo assessment of drug efficacy, toxicity and safety. An important advantage of the zebrafish animal model is that the morphological and molecular basis of tissues and organs is either identical or similar to other vertebrates, including humans. The sequence and presumed function of many genes that are important for vertebrates are conserved in the zebrafish and the homology is as high as 85%. It has been shown that loss-of-function alleles for leukocyte tyrosine kinase (Ltk), the sister kinase to ALK, lack iridophores in zebrafish (Lopes, S. S., Yang, X., et al. (2008). Leukocyte tyrosine kinase functions in pigment cell development. PLoS Genet, 4.). Iridophores are neural crest-derived pigment cells that are clearly visible as shiny silver cells in the developing zebrafish embryo which distribute in the head, eyes, the lateral spine. ALK and LTK are sister kinase.
Therefore, using this principle, we investigated the effect of the compounds on normal zebrafish iridophore pigment cells to explore the compound's anti-ALK activity in vivo.
Method: Fish eggs of 6 hpf (hours post impurity) were randomly divided into groups. Then, subjects with different concentrations were added and the images were collected at 3 dpf (days post impurity). Then, the IOD (integrated option density) values of zebrafish dorsal iridophore pigment cells from the release pore to the caudal position were analyzed using ImageJ software. The Graphpad prism6.0 was used to conduct statistical analysis on Dunnett's t-test, and p<0.05 indicates statistical difference. The calculation formula of iridophore pigment inhibition rate is as follows: Inhibition rate (%)=[1−IOD(Compound)/IOD(vehicle)]×100%

[10] = tested on: NCI-H2228 tumor cells; test: Subcutaneous NCI-H2228 lung cancer xenograft model; assay type: in vivo, BALB/C nude mice
Experimental: BALB/C nude mice were inoculated at the right flank with NCI-H2228 tumor cells to establish the human Lung cancer xenograft model. […] The drug was administered for 14 days and then discontinued for two weeks. The therapeutic effect was evaluated by calculating the relative tumor proliferation rate T/C (%), and the tolerability of treatment was evaluated by the body weight changes and death.
Tumor volume (TV) were measured twice per week in two dimensions using a caliper, and the volume were expressed in mm^3 using the formula: V=0.5 a×b^2 where a and b are the long and short diameters of the tumor, respectively.
Relative tumor volume RTV=Vt/V0, Vt=tumor volume of the drug-treated group on a given day of the study, V0=tumor volume of the drug-treated group on the initial day of dosing.
The T/C value (%) is an indicator of tumor response to treatment, and one of commonly used anti-tumor activity endpoint; T/C %=TRTV/CRTV×100% Relative Tumor Growth Inhibition; % TGI=(1−T/C)×100%;

T1 sequence (Q9UM73 19-1620): as the sequence (Q9UM73 19-1620 L1196M) above, with M1178L counted along it

SMILES | IC50 [1] [nM] | GI50 [2] [nM] | GI50 [3] [nM] | IC50 [4] [nM] | IC50 [5] [nM] | GI50 [6] [nM] | IC50 [7] [nM] | GI50 [8] [nM] | IOD ([9]; added at 6 hpf, images at 3 dpf) | inhibition at 15 µM ([9]; Danio rerio, iridophore pigment, 3 dpf, read-out: Inhibition rate %) [%] | TGI ([10]; 30 mg/kg PO QD 14 days, at 14 days after administration) [%] | tumor volume ([10]; 30 mg/kg PO QD 14 days, at 14 days after administration (first day after administration end)) [mm^3] | TGI ([10]; 30 mg/kg PO QD 14 days, end of the experiment (15 days after the administration)) [%] | anti-tumor effect ([10]; 30 mg/kg, once a day, continuously for 14 days)
CCn1cc(Nc2nc(Nc3cc(C)c(C4CCNCC4)c4c3O[C@H](C)C4)ncc2Cl)c(S(=O)(=O)C(C)C)n1 [REX-D33, (R)-5-chloro-N^2-(2,5-dimethyl-4-(piperidin-4-yl)-2,3-dihydrobenzofuran-7-yl)-N^4-(1-ethyl-3-(isopropylsulfonyl)-1H-pyrazol-4-yl)pyrimidine-2,4-diamine] | 15.5 | 33.4 |  |  | 11.7 | > 180 | 2 |  |  |  |  |  |  | 
Cc1cc(Nc2ncc(C(F)(F)F)c(Nc3cn(C)nc3S(=O)(=O)CC(C)C)n2)c2c(c1C1CCN(C)CC1)C[C@@H](C)O2 [REX-D10, (R)—N^2-(2,5-dimethyl-4-(1-methylpiperidin-4-yl)-2,3-dihydrobenzofuran-7-yl)-N^4-(3-(isobutylsulfonyl)-1-methyl-1H-pyrazol-4-yl)-5-(trifluoromethyl)pyrimidine-2,4-diamine] | 17.1 | < 200 |  |  | 14.2 | > 180 | < 0.5 |  |  |  |  |  |  | 
Cc1cc(Nc2ncc(Cl)c(Nc3ccccc3S(=O)(=O)C(C)C)n2)c(OC(C)C)cc1C1CCNCC1 [Ceritinib, reference compound] |  | 36.1 | 36.5 | 40 to 85 | 40.7 | > 180 |  |  | 35.5 ± 7.0 | 95 | 94.7 | 17 | 95.3 | significant anti-tumor effect
Cc1cc(Nc2ncc(C(F)(F)F)c(Nc3cn(C)nc3S(=O)(=O)C(C)C)n2)c2c(c1C1CCN(CCO)CC1)C[C@@H](C)O2 [REX-D5, (R)-2-(4-(7-((4-((3-(isopropylsulfonyl)-1-methyl-1H-pyrazol-4-yl)amino)-5-(trifluoromethyl)pyrimidin-2-yl)amino)-2,5-dimethyl-2,3-dihydrobenzofuran-4-yl)piperidin-1-yl)ethanol] | 15 | 80.1 |  |  | 10.7 | > 180 | < 0.5 |  |  |  |  |  |  | 
Cc1cc(Nc2ncc(Cl)c(Nc3cn(C)nc3S(=O)(=O)C(C)C)n2)c2c(c1C1CCN(C(C)C)CC1)C[C@@H](C)O2 [REX-D14, (R)-5-chloro-N^2-(4-(1-isopropylpiperidin-4-yl)-2,5-dimethyl-2,3-dihydrobenzofuran-7-yl)-N^4-(3-(isopropylsulfonyl)-1-methyl-1H-pyrazol-4-yl)pyrimidine-2,4-diamine] | 15.7 | 11.2 |  |  | 10.7 | > 180 | 1.1 |  |  |  |  |  |  | 
Cc1cc(Nc2ncc(Cl)c(Nc3cn(C)nc3S(=O)(=O)C(C)C)n2)c2c(c1C1CCN(C3CCNCC3)CC1)C[C@@H](C)O2 [REX-D13, (R)—N^2-(4-([1,4′-bipiperidin]-4-yl)-2,5-dimethyl-2,3-dihydrobenzofuran-7-yl)-5-chloro-N^4-(3-(isopropylsulfonyl)-1-methyl-1H-pyrazol-4-yl)pyrimidine-2,4-diamine] | 18.8 | 94.3 |  |  | 33.7 | > 180 | 1.02 |  |  |  |  |  |  | 

Second part, led by results:

IC50 [1] [nM] | GI50 [2] [nM] | GI50 [3] [nM] | IC50 [4] [nM] | IC50 [5] [nM] | GI50 [6] [nM] | IC50 [7] [nM] | GI50 [8] [nM] | SMILES | IOD ([9]; added at 6 hpf, images at 3 dpf) | inhibition at 15 µM ([9]; Danio rerio, iridophore pigment, 3 dpf, read-out: Inhibition rate %) [%] | TGI ([10]; 30 mg/kg PO QD 14 days, at 14 days after administration) [%] | tumor volume ([10]; 30 mg/kg PO QD 14 days, at 14 days after administration (first day after administration end)) [mm^3] | TGI ([10]; 30 mg/kg PO QD 14 days, end of the experiment (15 days after the administration)) [%] | anti-tumor effect ([10]; 30 mg/kg, once a day, continuously for 14 days)
6.82 | < 10 | 10.5 | < 20 | 10.6 | > 180 | 1.34 | 10.5 | Cc1cc(Nc2ncc(Cl)c(Nc3cn(C)nc3S(=O)(=O)C(C)C)n2)c2c(c1C1CCNCC1)C[C@@H](C)O2 [REX-D1, (R)-5-chloro-N^2-(2,5-dimethyl-4-(piperidin-4-yl)-2,3-dihydrobenzofuran-7-yl)-N^4-(3-(isopropylsulfonyl)-1-methyl-1H-pyrazol-4-yl)pyrimidine-2,4-diamine] |  |  |  |  |  | 
15.9 | < 10 | 10.5 | < 20 | 10.8 | < 140 | 1.25 | 10.4 | Cc1cc(Nc2ncc(C(F)(F)F)c(Nc3cn(C)nc3S(=O)(=O)C(C)C)n2)c2c(c1C1CCNCC1)C[C@@H](C)O2 [REX-D3, (R)—N^2-(2,5-dimethyl-4-(piperidin-4-yl)-2,3-dihydrobenzofuran-7-yl)-N^4-(3-(isopropylsulfonyl)-1-methyl-1H-pyrazol-4-yl)-5-(trifluoromethyl)pyrimidine-2,4-diamine] |  |  |  |  |  | 
5.9 | < 10 | 10.5 | < 10 | 10.6 | < 50 | 0.565 | 10.5 | Cc1cc(Nc2ncc(C(F)(F)F)c(Nc3cn(C)nc3S(=O)(=O)C(C)C)n2)c2c(c1C1CCN(C)CC1)C[C@@H](C)O2 [REX-D4, (R)—N^2-(2,5-dimethyl-4-(1-methylpiperidin-4-yl)-2,3-dihydrobenzofuran-7-yl)-N^4-(3-(isopropylsulfonyl)-1-methyl-1H-pyrazol-4-yl)-5-(trifluoromethyl)pyrimidine-2,4-diamine] |  |  |  |  |  | 
8.46 | 10.7 |  |  | 10.6 | > 180 | < 0.5 |  | Cc1cc(Nc2ncc(Cl)c(Nc3cn(C)nc3S(=O)(=O)C(C)C)n2)c2c(c1C1CCN(CCO)CC1)C[C@@H](C)O2 [REX-D11, (R)-2-(4-(7-((5-chloro-4-((3-(isopropylsulfonyl)-1-methyl-1H-pyrazol-4-yl)amino)pyrimidin-2-yl)amino)-2,5-dimethyl-2,3-dihydrobenzofuran-4-yl)piperidin-1-yl)ethanol] |  |  |  |  |  | 
